Measured values published in patent US9340577B2, “HLA binding motifs and peptides and their uses” (priority 1992, dated 2016).
Read-outs that look alike come from different tables or passages of the source. No end group written: not given here.

Biological target: DR1 (DRB1*0101) (Homo sapiens, UniProt P01903+P01911, A100R/D57E/F55L/F60I/F76Y/I96L/L162R/M171V/P40L/Q125E/R42F/V115G/Y59C)
Assay: biochemical
Format: binding

730.12 (Ac-AAAKATAAAAAA; also: non-natural residue (10)) [Peptide 730.12]
IC50 (read-out: DRB1*0101): 5000 nM

824.22 (AAKTAAAFA; also: non-natural residue (46)) [Peptide 824.22]
IC50 (read-out: DRB1*0101): 5000 nM

CC(C)[C@H](NC(=O)[C@@H]1CCCN1C(=O)[C@H](CCCCN)NC(=O)[C@H](CO)NC(=O)[C@H](CC(N)=O)NC(=O)[C@H](CC(N)=O)NC(=O)[C@H](CO)NC(=O)[C@H](CO)NC(=O)[C@H](Cc1ccccc1)NC(=O)[C@H](CO)NC(=O)[C@@H]1CCCN1C(=O)[C@@H](N)CCCCN)C(=O)N[C@@H](CCC(=O)O)C(=O)N[C@@H](CC(=O)O)C(=O)N[C@@H](CCCCN)C(=O)O [Peptide 9014.0037]
IC50: 22 nM

CC(C)[C@H](NC(=O)[C@H](CO)NC(=O)[C@@H]1CCCN1C(=O)[C@@H](N)CCCCN)C(=O)N[C@@H](CO)C(=O)N[C@@H](CO)C(=O)N[C@@H](CC(N)=O)C(=O)N[C@@H](CC(N)=O)C(=O)N[C@@H](CO)C(=O)N[C@@H](CCCCN)C(=O)N1CCC[C@H]1C(=O)N[C@H](C(=O)N[C@@H](CCC(=O)O)C(=O)N[C@@H](CC(=O)O)C(=O)N[C@@H](CCCCN)C(=O)O)C(C)C [Peptide 9014.0041]
IC50: 946 nM

CC(C)[C@H](NC(=O)[C@@H]1CCCN1C(=O)[C@H](CCCCN)NC(=O)[C@H](CO)NC(=O)[C@H](CC(N)=O)NC(=O)[C@H](CC(N)=O)NC(=O)[C@H](CO)NC(=O)[C@H](CO)NC(=O)[C@H](Cc1c[nH]c2ccccc12)NC(=O)[C@H](CO)NC(=O)[C@@H]1CCCN1C(=O)[C@@H](N)CCCCN)C(=O)N[C@@H](CCC(=O)O)C(=O)N[C@@H](CC(=O)O)C(=O)N[C@@H](CCCCN)C(=O)O [Peptide 9014.0042]
IC50: 29 nM

CC(C)[C@H](NC(=O)[C@@H]1CCCN1C(=O)[C@H](CCCCN)NC(=O)[C@H](CO)NC(=O)[C@H](CC(N)=O)NC(=O)[C@H](CC(N)=O)NC(=O)[C@H](CO)NC(=O)[C@H](CO)NC(=O)[C@H](Cc1ccc(O)cc1)NC(=O)[C@H](CO)NC(=O)[C@@H]1CCCN1C(=O)[C@@H](N)CCCCN)C(=O)N[C@@H](CCC(=O)O)C(=O)N[C@@H](CC(=O)O)C(=O)N[C@@H](CCCCN)C(=O)O [Peptide 9014.0043]
IC50: 39 nM

CC[C@H](C)[C@H](NC(=O)[C@@H](NC(=O)[C@H](CCCCN)NC(=O)[C@H](Cc1ccccc1)NC(=O)[C@@H](NC(=O)[C@@H](NC(=O)[C@@H](N)CCCNC(=N)N)[C@@H](C)O)[C@@H](C)O)[C@@H](C)O)C(=O)N[C@H](C(=O)N[C@H](C(=O)N[C@@H](CO)C(=O)N[C@@H](C)C(=O)N[C@@H](CCC(=O)O)C(=O)N[C@@H](CC(C)C)C(=O)N1CCC[C@H]1C(=O)N[C@@H](CCCCN)C(=O)O)C(C)C)[C@@H](C)O [Peptide 9014.0054]
IC50: 55 nM

CC[C@H](C)[C@H](NC(=O)[C@@H](NC(=O)[C@H](CCCCN)NC(=O)[C@H](CC(C)C)NC(=O)[C@@H](NC(=O)[C@@H](NC(=O)[C@@H](N)CCCNC(=N)N)[C@@H](C)O)[C@@H](C)O)[C@@H](C)O)C(=O)N[C@H](C(=O)N[C@H](C(=O)N[C@@H](CO)C(=O)N[C@@H](C)C(=O)N[C@@H](CCC(=O)O)C(=O)N[C@@H](CC(C)C)C(=O)N1CCC[C@H]1C(=O)N[C@@H](CCCCN)C(=O)O)C(C)C)[C@@H](C)O [Peptide 9014.0058]
IC50: 308 nM

CWMIDSEARPRFREL [Peptide 9014.0219]
IC50: 55 nM

CWMIDSEHRPRFREL [Peptide 9014.0221]
IC50: 868 nM

CWMIDSELRPRFREL [Peptide 9014.0223]
IC50: 433 nM

CWMIDSESRPRFREL [Peptide 9014.0225]
IC50: 459 nM

CWMIDSETRPRFREL [Peptide 9014.0226]
IC50: 371 nM

CWMIDSEVRPRFREL [Peptide 9014.0227]
IC50: 753 nM

DMKLRLAASPETHLD [Peptide 9014.0115]
IC50: 47 nM

DMKLRLIASPETHLD [Peptide 9014.0118]
IC50: 12 nM

DMKLRLLASPETHLD [Peptide 9014.0119]
IC50: 12 nM

DMKLRLNASPETHLD [Peptide 9014.0120]
IC50: 902 nM

DMKLRLPAIPETHLD [Peptide 9014.0135]
IC50: 764 nM

DMKLRLSASPETHLD [Peptide 9014.0121]
IC50: 823 nM

DMKLRLVASPETHLD [Peptide 9014.0123]
IC50: 28 nM

DMKYRLPASPETHLD [Peptide 9014.0131]
IC50: 776 nM

ETEAVEPLTPSGAMP [Peptide 9014.0141]
IC50: 51 nM

ETEFVEPLTPSGAMP [Peptide 9014.0142]
IC50: 25 nM

ETEHVEPLTPSGAMP [Peptide 9014.0143]
IC50: 62 nM

ETEIVEPLTPSGAMP [Peptide 9014.0144]
IC50: 481 nM

ETEKVEPLTPSGAMP [Peptide 9014.0145]
IC50: 21 nM

ETELVEPLAPSGAMP [Peptide 9014.0149]
IC50: 45 nM

ETELVEPLFPSGAMP [Peptide 9014.0150]
IC50: 304 nM

ETELVEPLHPSGAMP [Peptide 9014.0151]
IC50: 31 nM
